Data: patent US7915293B2, “Ubiquitin ligase inhibitors” (Rigel Pharmaceuticals, Inc., priority 2003, dated 2011)

Legend:
Design in all cases: key: “+” indicates that the compound exibits inhibitory activity; “−” indicates that low or no inhibitory activity was observed
[1] = molecular target: E3 (His-APC11/APC2-"APC") (Homo sapiens, UniProt Q9NYG5+Q9UJX6); test: Plate-based E3 ligase assay (APC FLAG), auto-ubiquitination; assay type: biochemical; settings: 8 concentrations tested
Summary of the method: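 His-APC11/APC2 auto-ubiquitination was run in casein-blocked nickel plates for 1 h at room temperature, with E1 at 5 ng/well, UbcH5c at 20 ng/well and APC at 100 ng/well. Buffer was 62.5 mM Tris pH 7.6, 3 mM MgCl2, 1 mM DTT, 2.5 mM ATP and Flag-ubiquitin at 100 ng/well. Detection used anti-Flag/HRP chemiluminescence, and IC50 was typically from 6 or 8 concentrations versus a DMSO control.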

A549 cells [2] = test: Cell proliferation assay, photographic image analysis of proliferation, apoptosis and death (PAD assay), A549; assay type: cell-based; settings: 6 concentrations tested
Summary of the method: (§1)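 Cells grown in RPMI with 5% FBS (2,000/well) and dosed 24 h after plating with 6.3-fold dilutions in duplicate (master plate 500× final, top 10 mM stock). After 48 h at 37 °C, cells formamide-fixed and DAPI-stained. Image analysis counted live, apoptotic and dead cells.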

MDM2 / p53 substrate = MDM2 / p53 substrate (Homo sapiens, UniProt Q00987); test: Plate-based MDM2 substrate ligation assay (MDM2-P53-FLAG); assay type: biochemical; settings: 8 concentrations tested
Text: This assay was preformed essentially as described in WO 03/076899 (page 77, line 5 to page 80, line 13), hereby incorporated by reference in its entirety.

E3 MDM2 = E3 MDM2 (Homo sapiens, UniProt Q00987); test: Plate-based autoubiquitination of the E3 MDM2 (MDM2-FLAG); assay type: biochemical; settings: 8 concentrations tested
Experimental: E3 (His-APC11/APC2-“APC”) auto-ubiquitination was measured as described in U.S. patent application Ser. No. 09/826,312 (Publication No. US-2002-0042083-A1), which is incorporated herein in its entirety. Details of the protocol are described below. Activity in the presence of the compound was determined relative to a parallel control in which only DMSO was added. Values of the IC50 were typically determined using 6 or 8 different concentrations of the compound, although as few as 2 concentrations may be used to approximate the IC50 value.
Nickel-coated 96-well plates (Pierce 15242) were blocked for 1 hour with 100 μl of blocking buffer at room temperature. The plates were washed 4 times with 225 μl of 1×PBS and 80 μl of the reaction buffer were added that contained 100 ng/well of Flag-ubiquitin. To this, 10 μl of the test compound diluted in DMSO were added. After the test compound was added, 10 μl of E1 (human), E2 (Ubch5c), and APC in Protein Buffer was added to obtain a final concentration of 5 ng/well of E1, 20 ng/well of E2 and 100 ng/well of APC. The plate were shaken for 10 minutes and incubated at room temperature for 1 hour. After incubation, the plates were washed 4 times with 225 μl of 1×PBS and 100 μl/well of Antibody Mix were added to each well. The plates were incubate at room temperature for another hour after which they were washed 4 times with 225 μl of 1×PBS and 100 μl/well of Lumino substrate were added to each well. The luminescence was measured by using a BMG luminescence microplate reader.
To prepare the Blocking Buffer (1 liter; 1% Casein in 1×PBS), 10 grams of Casein (Hammersten Grade Casein from Gallard-Schlesinger Inc. #440203) were placed into 1 liter of 1×PBS, stirred on a hot plate and kept between 50-60° C. for an hour. The buffer was allowed to cool to room temperature and then filtered using a Buchner Funnel (Buchner filter funnel 83 mm 30310-109) and Whatman filter paper (Whatman Grade No. 1 Filter paper 28450-070). It was stored at 4° C. until used.
The reaction buffer consisted of 62.5 mM Tris pH 7.6 (Trizma Base—Sigma T-8524), 3 mM MgCl2 (Magnesium Chloride—Sigma M-2393), 1 mM DTT (Sigma D-9779), 2.5 mM ATP (Roche Boehringer Mann Corp. 635-316), 100 ng/well of Flag-ubiquitin, 0.1% BSA (Sigma A-7906), and 0.05% Tween-20 (Sigma P-7949).
The Protein Buffer consisted of 20 mM Tris pH 7.6, 10% glycerol (Sigma G-5516) and 1 mM DTT.
The antibody mix consisted of 0.25% BSA (Sigma A-7906) in 1×PBS, 1/50,000 anti-Flag (Sigma F-3165), 1/100,000 of anti-Mouse IgG-HRP (Jackson Immunoresearch #115-035-146).
The substrate mix consisted of SuperSignal Substrate from Pierce (catalog number 37070ZZ) and was prepared by mixing 100 ml of the peroxide solution, 100 ml of the enhancer solution and 100 ml of Milli-Q® water.
In similar manner, autoubiquitination of the E3 MDM2 was determined (MDM2-FLAG). Further instruction in such assays can be found in U.S. patent application Ser. No. 10/108,767 (Publication No. US-2003-0104474 A1), which is incorporated herein in its entirety.

HCT116 cells [3] = test: Cell proliferation assay, photographic image analysis of proliferation, apoptosis and death (PAD assay), HCT116; assay type: cell-based; settings: 6 concentrations tested
Summary of the method: as §1

A549 cells [4] = test: Non-photographic proliferation analysis (Promega Cell titer Aqueous), A549; assay type: cell-based; settings: 6 concentrations tested
Summary of the method: (§2)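 HeLa, A549 and HCT116 cells, 2,000 per well in RPMI with 5% FBS, were given compounds 24 h after plating as 6.3-fold duplicate dilutions from 10 mM stock, diluted 500-fold into the wells. After 48 h at 37° C, 5% CO2, Cell titer Aqueous reagent was added for 45 min and absorbance read at 490 nm.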

HeLa cells [5] = test: Cell proliferation assay, photographic image analysis of proliferation, apoptosis and death (PAD assay), HeLa; assay type: cell-based; settings: 6 concentrations tested
Summary of the method: as §1

HeLa cells [6] = test: Non-photographic proliferation analysis (Promega Cell titer Aqueous), HeLa; assay type: cell-based; settings: 6 concentrations tested
Summary of the method: as §2

HCT116 cells [7] = test: Non-photographic proliferation analysis (Promega Cell titer Aqueous), HCT116; assay type: cell-based; settings: 6 concentrations tested
Experimental: A549 (ATCC# CCL-185), HeLa (ATCC# CCL-2), HCT116 (ATCC# CCL-247), and H1299 (ATCC# CRL-5803) cells were maintained in T175 flasks following the ATCC recommended media and handling procedures. Flasks reaching approximately 70% confluency were trypsinized and resuspended in RPMI media (Cell-Gro catalog number 10-040-CM) modified to contain 5% FBS, 100 ug/mlPen/Strep (Cell-Gro catalog number 30-002-CL), and 0.3 mg/ml L-Glutamine (Cell-Gro catalog number 25-003-CL). A 20,000 cells/ml solution was made for plating. Cells were plated in black Packard 96 well plates by placing 100 μl per well (2,000 cells per well).
Compounds and additional media were added 24 hours after cell plating. A compound master plate was created with concentrations 500 times greater than the final concentration added to the cells. All compound testing was done in duplicate using 6.3 fold dilutions starting with 10 mM. All outside wells (and 4 internal wells) were DMSO controls. Taxol and at least one additional control were run on all plates. Three microliters of the compound master plate were added to deep well blocks containing 750 μl of RPMI media. One hundred microliters were transferred from the compound/media deep well blocks to the plated cells resulting in a 500 fold dilution of the compounds. Cells were grown at 37° C., 5% CO2 for 48 hours.
Some cell plates were treated with Promega Cell titer Aqueous 1 kit (promega—VWR catalog number G3580). In this case, 48 hours after the test compound were added, 100 μl of media were removed and 20 μl of cell titer reagent were added to all wells. Plates were incubated at 37° C. for 45 minutes prior to absorbance reads on the Wallac plate reader at 490 nm for 0.1 sec/well.

Sequence of E3 (His-APC11/APC2-"APC") (Q9NYG5 whole entry): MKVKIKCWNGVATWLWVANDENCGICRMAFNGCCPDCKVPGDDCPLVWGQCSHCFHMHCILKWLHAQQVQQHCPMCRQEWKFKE
Sequence of E3 (His-APC11/APC2-"APC") (Q9UJX6 whole entry): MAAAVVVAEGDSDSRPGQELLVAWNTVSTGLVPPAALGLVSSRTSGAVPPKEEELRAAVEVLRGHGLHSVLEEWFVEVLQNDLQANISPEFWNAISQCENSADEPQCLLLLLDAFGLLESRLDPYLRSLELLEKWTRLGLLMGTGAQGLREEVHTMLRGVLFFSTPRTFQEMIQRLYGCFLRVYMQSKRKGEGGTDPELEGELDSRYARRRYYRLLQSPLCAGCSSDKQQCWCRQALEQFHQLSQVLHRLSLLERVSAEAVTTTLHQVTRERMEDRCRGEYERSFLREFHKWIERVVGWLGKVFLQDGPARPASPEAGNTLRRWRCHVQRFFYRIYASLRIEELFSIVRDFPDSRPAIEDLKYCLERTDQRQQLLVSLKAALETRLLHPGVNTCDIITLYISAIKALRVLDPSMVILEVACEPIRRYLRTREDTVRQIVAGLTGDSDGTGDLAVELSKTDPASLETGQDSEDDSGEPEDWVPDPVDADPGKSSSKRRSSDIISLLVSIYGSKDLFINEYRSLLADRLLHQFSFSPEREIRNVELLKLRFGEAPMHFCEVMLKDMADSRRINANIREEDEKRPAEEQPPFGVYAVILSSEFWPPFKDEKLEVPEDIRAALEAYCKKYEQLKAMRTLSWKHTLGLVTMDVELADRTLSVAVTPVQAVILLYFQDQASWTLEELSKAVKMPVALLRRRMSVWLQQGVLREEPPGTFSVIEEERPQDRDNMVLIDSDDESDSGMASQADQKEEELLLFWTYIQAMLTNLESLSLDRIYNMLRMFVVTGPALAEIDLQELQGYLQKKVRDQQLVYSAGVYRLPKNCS
Sequence of E3 MDM2 (Q00987 whole entry): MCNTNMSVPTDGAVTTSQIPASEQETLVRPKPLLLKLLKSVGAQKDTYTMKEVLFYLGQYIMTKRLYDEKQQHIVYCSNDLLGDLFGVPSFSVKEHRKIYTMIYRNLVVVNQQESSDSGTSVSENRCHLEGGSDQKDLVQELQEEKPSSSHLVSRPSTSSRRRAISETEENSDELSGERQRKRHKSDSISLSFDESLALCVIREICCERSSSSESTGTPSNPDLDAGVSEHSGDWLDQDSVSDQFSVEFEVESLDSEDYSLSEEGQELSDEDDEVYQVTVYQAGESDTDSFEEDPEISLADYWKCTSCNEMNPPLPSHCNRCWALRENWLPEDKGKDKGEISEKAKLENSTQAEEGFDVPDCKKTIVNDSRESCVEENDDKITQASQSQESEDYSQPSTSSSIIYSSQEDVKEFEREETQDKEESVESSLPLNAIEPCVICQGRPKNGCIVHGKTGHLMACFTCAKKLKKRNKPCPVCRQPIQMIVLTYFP
Sequence of MDM2 / p53 substrate (Q00987 whole entry): as above

Row | Structure (SMILES) | APC Flag 8 pt [1] | PAD Assay, A549 6 pt (A549 cells [2]) | MDM2-P53 Flag 8 pt (MDM2 / p53 substrate) | MDM2-Auto Flag 8 pt (E3 MDM2) | PAD Assay, HCT116 6 pt (HCT116 cells [3]) | Cell Titer-Aqueous, A549 6 pt (A549 cells [4]) | PAD Assay, HELA 6 pt (HeLa cells [5]) | Cell Titer-Aqueous, HELA 6 pt (HeLa cells [6]) | Cell Titer-Aqueous, HCT116 6 pt (HCT116 cells [7])
1 | O=[N+]([O-])c1ccc(Oc2c(Cl)cc(S(=O)(=O)Nc3cc(Br)cc(Br)n3)cc2Cl)c(Cl)c1 [Compound 218] | + | − | + | + | − | + | + | + | 
2 | O=[N+]([O-])c1ccc(Oc2c(Cl)cc(S(=O)(=O)Nc3cc([N+](=O)[O-])ccc3F)cc2Cl)c(Cl)c1 [Compound 220, 3,5-dichloro-4-(2-chloro-4-nitrophenoxy)-N-(2-fluoro-5-nitrophenyl)benzene sulfonamide] | + | + | − | + | + | + | + | + | 
3 | O=[N+]([O-])c1ccc(Oc2c(Cl)cc(S(=O)(=O)/N=C(\NO)Nc3ccc(Cl)cc3)cc2Cl)c(Cl)c1 [Example 58, 3,5-dichloro-4-(2-chloro-4-nitrophenoxy)-N-[(1Z)-[(4-chlorophenyl)amino](hydroxy-amino)methylene]benzenesulfonamide] | + | + | + | + |  | + | + | + | +
